From PMC5310151 (Saudi Pharmaceutical Journal : SPJ, 2016)

How the values were obtained:
PPARγ = biological target: T1, PPARγ (Rattus norvegicus, UniProt O88275); test: PPRE luciferase reporter assay in HepG2 cells transfected with PPARγ; assay type: cell-based; conditions: HepG2, read-out: Fold induction / PPAR gamma / 50 μg/ml
T1 sequence (O88275 1-505): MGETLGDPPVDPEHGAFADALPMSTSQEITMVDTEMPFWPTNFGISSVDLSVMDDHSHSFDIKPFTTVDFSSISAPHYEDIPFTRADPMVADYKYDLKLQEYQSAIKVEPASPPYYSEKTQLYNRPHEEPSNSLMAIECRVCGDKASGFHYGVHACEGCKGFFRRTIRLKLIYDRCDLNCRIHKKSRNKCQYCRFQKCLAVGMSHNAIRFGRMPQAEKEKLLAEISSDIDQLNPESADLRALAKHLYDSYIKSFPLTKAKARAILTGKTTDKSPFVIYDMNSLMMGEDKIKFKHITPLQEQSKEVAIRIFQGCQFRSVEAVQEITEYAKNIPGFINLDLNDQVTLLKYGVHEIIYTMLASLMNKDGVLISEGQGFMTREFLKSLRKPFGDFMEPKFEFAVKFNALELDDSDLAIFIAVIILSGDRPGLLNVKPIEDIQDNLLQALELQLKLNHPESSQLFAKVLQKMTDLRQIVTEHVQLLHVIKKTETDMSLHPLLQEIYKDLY

PPARα = biological target: T2, PPARα (Mus musculus, UniProt P23204); test: PPRE luciferase reporter assay in HepG2 cells transfected with PPARα; assay type: cell-based; conditions: HepG2, read-out: Fold induction / PPAR alpha / 50 μg/ml
T2 sequence (P23204 1-468): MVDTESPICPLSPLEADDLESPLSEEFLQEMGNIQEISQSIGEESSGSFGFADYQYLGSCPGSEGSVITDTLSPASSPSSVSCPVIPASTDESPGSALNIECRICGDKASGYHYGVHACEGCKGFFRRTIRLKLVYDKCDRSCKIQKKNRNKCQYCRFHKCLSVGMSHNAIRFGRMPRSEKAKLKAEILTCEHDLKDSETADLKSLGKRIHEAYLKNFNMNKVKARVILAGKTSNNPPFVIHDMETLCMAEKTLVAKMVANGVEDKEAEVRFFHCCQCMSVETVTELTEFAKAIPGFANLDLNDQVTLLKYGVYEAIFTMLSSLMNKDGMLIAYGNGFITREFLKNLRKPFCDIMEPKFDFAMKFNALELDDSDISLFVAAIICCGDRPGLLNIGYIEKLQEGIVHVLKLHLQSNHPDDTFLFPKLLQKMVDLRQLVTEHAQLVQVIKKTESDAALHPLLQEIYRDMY

SMILES | fold induction at 10 µM (PPARγ) | fold induction (PPARα)
CN(CCOc1ccc(CC2SC(=O)NC2=O)cc1)c1ccccn1 (centres unmarked) [Rosiglitazone] | 4.33 ± 0.54 | 
CC(C)(Oc1ccc(C2CC2(Cl)Cl)cc1)C(=O)O (centres unmarked) [Ciprofibrate] |  | 2.2 ± 0.21
